Eight compounds from PubChem BioAssay (NCI) can be followed below.

Each structure is given as a SMILES string.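 Grown in 96-well plates, cells were treated for 48 hours with each compound at five concentrations. Insufficient inhibition: endpoint recorded as highest concentration tested. The concentration for full growth arrest is given as TGI.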 A value given as a limit tells only on which side of the number the result lay.

Some test systems named below: NCI-H226 lung; M14 melanoma; SNB-75 CNS; A549 NSCLC; SW-620 colon; A498 renal; SF-539 CNS; UACC-257 melanoma; RXF 393 renal; TK-10 renal; SK-MEL-2 melanoma; SN12C renal; MCF7 breast; NCI-H23 lung; OVCAR-3 ovarian; ACHN renal; HOP-62 NSCLC; K-562 leukemia; RPMI-8226 leukemia.
Holding throughout (assay): growth of human tumour cells (NCI), 48 h

As for `C[C@@H]1OC2(O)[C@@H]3CCCN3C(=O)N(Cc3ccccc3)N2C1=O` (stereo partly specified), the TGI with NCI-H226 lung was more than 100 µM; with M14 melanoma it was more than 100 µM; in the test on SNB-75 CNS it was 88.7 µM; in the test on A549 NSCLC, more than 100 µM; in the test on SW-620 colon, more than 100 µM; with A498 renal, more than 100 µM. Moreover, the TGI in the test on SF-539 CNS, in the test with UACC-257 melanoma, in the test with RXF 393 renal, in the test with TK-10 renal, with SK-MEL-2 melanoma and in the test on SN12C renal was more than 100 µM throughout. Moreover, the TGI in the test with MCF7 breast, in the test on NCI-H23 lung, in the test with OVCAR-3 ovarian, in the test with ACHN renal and in the test on HOP-62 NSCLC was more than 100 µM each time.

With `CC1=CCC[C@]2(C)C1=CC(=O)O[C@H]2c1ccoc1`, the TGI in the test on K-562 leukemia, in the test on NCI-H226 lung, with SNB-75 CNS, in the test with A549 NSCLC, with SW-620 colon and with A498 renal was more than 100 µM in each case. The TGI in the test on RPMI-8226 leukemia, in the test with UACC-257 melanoma, in the test with RXF 393 renal, in the test with TK-10 renal, in the test on SK-MEL-2 melanoma and in the test on SN12C renal was more than 100 µM in each case. Moreover, the TGI in the test with MCF7 breast, in the test with NCI-H23 lung, in the test with OVCAR-3 ovarian, in the test on ACHN renal and with HOP-62 NSCLC was more than 100 µM each time.

On to `CN1CCC/C1=C1\C(=O)c2cccn2C1=O`, for which the TGI in the test on K-562 leukemia, in the test on NCI-H226 lung, in the test on M14 melanoma, in the test with SNB-75 CNS, with A549 NSCLC and in the test on SW-620 colon was more than 100 µM in each case. The TGI in the test on A498 renal, with RPMI-8226 leukemia, in the test with UACC-257 melanoma, in the test with RXF 393 renal, with TK-10 renal and in the test on SK-MEL-2 melanoma was more than 100 µM each time. In addition, the TGI with SN12C renal, in the test on MCF7 breast, in the test on NCI-H23 lung, with OVCAR-3 ovarian, in the test on ACHN renal and with HOP-62 NSCLC was more than 100 µM throughout.

`CCCCc1ccc(N2C(=O)c3cccnc3S2(=O)=O)cc1`: the TGI in the test with K-562 leukemia, in the test on NCI-H226 lung, with M14 melanoma, in the test on SNB-75 CNS, in the test on A549 NSCLC and in the test with SW-620 colon was more than 100 µM in each case. For the same compound, the TGI in the test on A498 renal, in the test on SF-539 CNS, in the test with RPMI-8226 leukemia, in the test with UACC-257 melanoma, in the test on RXF 393 renal and in the test with SK-MEL-2 melanoma was more than 100 µM in each case. Besides, the TGI in the test on SN12C renal, in the test on MCF7 breast, in the test on NCI-H23 lung, in the test with OVCAR-3 ovarian, in the test with ACHN renal and in the test with HOP-62 NSCLC was more than 100 µM in each case.

Regarding `CC1=[N+]([O-])C(C)(C)N(O)C1(C)C`, the TGI in the test on K-562 leukemia, in the test with NCI-H226 lung, with M14 melanoma, in the test with SNB-75 CNS, with A549 NSCLC and with SW-620 colon was more than 100 µM each time. Further, the TGI in the test on A498 renal, with SF-539 CNS, in the test on RPMI-8226 leukemia, with RXF 393 renal, in the test with TK-10 renal and in the test with SK-MEL-2 melanoma was more than 100 µM each time. The TGI with SN12C renal, in the test with MCF7 breast, in the test with NCI-H23 lung, with OVCAR-3 ovarian, in the test with ACHN renal and in the test with HOP-62 NSCLC was more than 100 µM in each case.

With `COc1ccc(N2C(=O)/C(=C\c3cc(OC)c(OC)c(OC)c3)S(=O)(=O)C2c2ccccc2)cc1` (stereo unspecified), the TGI in the test with K-562 leukemia was more than 100 µM; in the test with NCI-H226 lung, more than 100 µM; in the test with M14 melanoma, 84.2 µM; with A549 NSCLC it was more than 100 µM; with SW-620 colon, more than 100 µM; with A498 renal, more than 100 µM. The TGI in the test with SF-539 CNS was more than 100 µM; with RPMI-8226 leukemia, more than 100 µM; in the test on UACC-257 melanoma it was more than 100 µM; in the test on RXF 393 renal it was more than 100 µM; in the test on TK-10 renal, more than 100 µM; in the test with SK-MEL-2 melanoma it was 71.1 µM. In addition, the TGI in the test on SN12C renal, in the test with MCF7 breast, with NCI-H23 lung, with OVCAR-3 ovarian, in the test on ACHN renal and with HOP-62 NSCLC was more than 100 µM each time.

With `C=C(Cl)C(Br)(CBr)CCC(Br)C(C)(C)Br` (stereo unspecified), the TGI is more than 10 µM in the test with K-562 leukemia; more than 10 µM in the test with NCI-H226 lung; more than 10 µM in the test with M14 melanoma; more than 10 µM in the test on SNB-75 CNS; more than 10 µM in the test with A549 NSCLC; 9.33 µM with SW-620 colon. The TGI with A498 renal is more than 10 µM; in the test with SF-539 CNS it was 4.92 µM; in the test with RPMI-8226 leukemia it was 4.96 µM; in the test on RXF 393 renal, 7.86 µM; with TK-10 renal, more than 10 µM; in the test with SN12C renal, more than 10 µM. The TGI is 5.32 µM in the test on MCF7 breast; more than 10 µM in the test on NCI-H23 lung; more than 10 µM in the test on OVCAR-3 ovarian; more than 10 µM in the test with ACHN renal; more than 10 µM in the test on HOP-62 NSCLC.

For the compound `CCOC(=O)c1c(NC(=O)c2ccc(OC)cc2)sc2c1CCCC2`, the TGI in the test on K-562 leukemia, in the test on NCI-H226 lung, in the test with M14 melanoma, with A549 NSCLC, in the test on SW-620 colon and in the test on A498 renal was more than 100 µM each time. For the same compound, the TGI with SF-539 CNS, in the test with RPMI-8226 leukemia, with UACC-257 melanoma, in the test on RXF 393 renal, with TK-10 renal and in the test with SK-MEL-2 melanoma was more than 100 µM throughout. The TGI in the test with SN12C renal, in the test with MCF7 breast, in the test on NCI-H23 lung, in the test on OVCAR-3 ovarian, with ACHN renal and in the test on HOP-62 NSCLC was more than 100 µM in each case.
